Test results: patent US9062124B2, “GIP-based mixed agonists for treatment of metabolic disorders and obesity” (priority 2008, dated 2015)
Like-named read-outs stand apart in the source and are kept apart here. Where a SMILES comes first, the peptide text is derived from it. Bridges are numbered along the chain shown (N, C = ends). Where no end group is shown, it is not given here. [ ]: non-standard residue; d: D form. The star is where a group is joined. PEG 40 kDa = PEG (40 kDa) covalently attached to Cys; Palmitoyl = CCCCCCCCCCCCCCCC(=O)*; Myristoyl = CCCCCCCCCCCCCC(=O)*; Nle = CCCC[C@H](N)C(=O)O; Aib = CC(C)(N)C(=O)O

Legend:
Format in all cases: cell-based
glucagon receptor = target: T1, glucagon receptor (Homo sapiens, UniProt P47871); experiment: cAMP synthesis functional assay (firefly luciferase reporter in HEK293 cells), glucagon receptor
T1 construct: expressed in transfected cells; host or cells: HEK293
T1 sequence (P47871 26-477): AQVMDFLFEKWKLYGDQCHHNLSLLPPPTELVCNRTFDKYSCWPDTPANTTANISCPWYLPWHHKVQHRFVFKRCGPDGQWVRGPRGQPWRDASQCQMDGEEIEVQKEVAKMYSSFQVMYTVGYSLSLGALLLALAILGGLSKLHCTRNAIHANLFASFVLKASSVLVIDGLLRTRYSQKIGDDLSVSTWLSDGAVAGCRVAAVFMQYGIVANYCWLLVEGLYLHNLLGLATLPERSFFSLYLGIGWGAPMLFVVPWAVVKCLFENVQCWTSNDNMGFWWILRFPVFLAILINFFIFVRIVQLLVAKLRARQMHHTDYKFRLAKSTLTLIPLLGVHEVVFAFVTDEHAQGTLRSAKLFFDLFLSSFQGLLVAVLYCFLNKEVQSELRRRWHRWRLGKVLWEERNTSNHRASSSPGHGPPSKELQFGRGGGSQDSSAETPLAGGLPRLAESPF

GLP-1 receptor = target: T2, GLP-1 receptor (Homo sapiens, UniProt P43220); experiment: cAMP synthesis functional assay (firefly luciferase reporter in HEK293 cells), GLP-1 receptor
T2 construct: expressed in transfected cells; host or cells: HEK293
T2 sequence (P43220 24-463, species assumed): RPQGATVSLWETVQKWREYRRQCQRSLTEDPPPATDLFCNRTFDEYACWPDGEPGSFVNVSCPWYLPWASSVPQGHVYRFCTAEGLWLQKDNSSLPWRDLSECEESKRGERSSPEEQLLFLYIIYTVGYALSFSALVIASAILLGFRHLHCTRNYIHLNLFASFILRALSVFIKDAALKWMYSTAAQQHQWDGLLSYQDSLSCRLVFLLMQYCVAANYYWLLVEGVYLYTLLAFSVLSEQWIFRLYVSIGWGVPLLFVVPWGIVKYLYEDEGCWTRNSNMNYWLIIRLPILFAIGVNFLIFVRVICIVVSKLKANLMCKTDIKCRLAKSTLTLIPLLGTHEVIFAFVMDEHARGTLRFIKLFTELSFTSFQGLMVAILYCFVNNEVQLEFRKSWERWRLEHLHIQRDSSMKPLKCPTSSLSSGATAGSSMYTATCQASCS

GIP receptor = target: T3, GIP receptor (Homo sapiens, UniProt P48546); experiment: cAMP synthesis functional assay (firefly luciferase reporter in HEK293 cells), GIP receptor
T3 construct: expressed in transfected cells; host or cells: HEK293
T3 sequence (P48546 22-466): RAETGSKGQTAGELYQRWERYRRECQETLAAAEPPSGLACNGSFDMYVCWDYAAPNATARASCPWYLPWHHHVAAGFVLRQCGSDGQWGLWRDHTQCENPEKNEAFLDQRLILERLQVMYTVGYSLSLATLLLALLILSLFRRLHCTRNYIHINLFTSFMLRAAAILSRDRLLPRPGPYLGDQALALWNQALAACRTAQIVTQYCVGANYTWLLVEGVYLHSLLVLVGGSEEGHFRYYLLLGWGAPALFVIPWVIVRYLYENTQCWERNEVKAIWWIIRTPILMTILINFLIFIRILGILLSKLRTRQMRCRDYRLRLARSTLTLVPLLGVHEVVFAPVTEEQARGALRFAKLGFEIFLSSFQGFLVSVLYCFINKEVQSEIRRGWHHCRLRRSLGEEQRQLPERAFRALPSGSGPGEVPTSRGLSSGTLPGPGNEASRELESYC

[1] = Glucagon Receptor EC50, cAMP luciferase reporter assay as in Example 16
[2] = relative to the standard (Std.) EC50 of the same run
[3] = GIP Receptor EC50, cAMP luciferase reporter assay as in Example 16
[4] = Table 1, relative to the native hormone of the indicated receptor
[5] = GLP-1 Receptor EC50, cAMP luciferase reporter assay as in Example 16

| Compound | EC50 (glucagon receptor; [1]) | Glucagon Receptor relative activity (glucagon receptor; [2]) | GLP-1 Receptor relative activity (GLP-1 receptor; [2]) | EC50 (GIP receptor; [3]) | GIP Receptor relative activity (GIP receptor; [2]) | Glucagon Receptor relative activity (glucagon receptor; [4]) | GLP-1 Receptor relative activity (GLP-1 receptor; [4]) | GIP Receptor relative activity (GIP receptor; [4]) | other results |
| --- | --- | --- | --- | --- | --- | --- | --- | --- | --- |
| CC[C@H](C)[C@H](NC(=O)[C@H](CO)NC(=O)[C@H](Cc1ccc(O)cc1)NC(=O)[C@H](CC(=O)O)NC(=O)[C@H](CO)NC(=O)[C@@H](NC(=O)[C@H](Cc1ccccc1)NC(=O)[C@@H](NC(=O)CNC(=O)[C@H](CCC(=O)O)NC(=O)C(C)(C)NC(=O)[C@@H](N)Cc1ccc(O)cc1)[C@@H](C)O)[C@@H](C)O)C(=O)N[C@@H](Cc1ccc(O)cc1)C(=O)N[C@@H](CC(C)C)C(=O)N[C@@H](CC(=O)O)C(=O)N[C@@H](CCCCN)C(=O)N[C@@H](CCC(N)=O)C(=O)N[C@@H](C)C(=O)N[C@@H](C)C(=O)NC(C)(C)C(=O)N[C@@H](CCC(=O)O)C(=O)N[C@@H](Cc1ccccc1)C(=O)N[C@H](C(=O)N[C@@H](CS)C(=O)N[C@@H](Cc1c[nH]c2ccccc12)C(=O)N[C@@H](CC(C)C)C(=O)N[C@@H](CC(C)C)C(=O)N[C@@H](C)C(=O)NCC(=O)NCC(=O)N1CCC[C@H]1C(=O)N[C@@H](CO)C(=O)N[C@@H](CO)C(=O)NCC(=O)N[C@@H](C)C(=O)N1CCC[C@H]1C(=O)N1CCC[C@H]1C(=O)N1CCC[C@H]1C(=O)N[C@@H](CO)C(=O)N[C@@H](CCCCN)C(N)=O)C(C)C [mt-308] | 12.2 nM | 0.39% | 68.35% | 0.0057 nM | 285.96% | – | – | – | – |
| CC[C@H](C)[C@H](NC(=O)[C@H](CO)NC(=O)[C@H](Cc1ccc(O)cc1)NC(=O)[C@H](CC(=O)O)NC(=O)[C@H](CO)NC(=O)[C@@H](NC(=O)[C@H](Cc1ccccc1)NC(=O)[C@@H](NC(=O)CNC(=O)[C@H](CCC(N)=O)NC(=O)[C@H](C)NC(=O)[C@@H](N)Cc1ccc(O)cc1)[C@@H](C)O)[C@@H](C)O)C(=O)N[C@@H](Cc1ccc(O)cc1)C(=O)N[C@@H](CCSC)C(=O)N[C@@H](CC(=O)O)C(=O)N[C@H]1CCC(=O)NCCCC[C@@H](C(=O)N[C@@H](CCC(=O)O)C(=O)N[C@@H](Cc2ccccc2)C(=O)N[C@H](C(=O)N[C@@H](CC(N)=O)C(=O)N[C@@H](Cc2c[nH]c3ccccc23)C(=O)N[C@@H](CC(C)C)C(=O)N[C@@H](CC(C)C)C(=O)N[C@@H](C)C(=O)NCC(=O)NCC(=O)N2CCC[C@H]2C(=O)N[C@@H](CO)C(=O)N[C@@H](CO)C(=O)NCC(=O)N[C@@H](C)C(=O)N2CCC[C@H]2C(=O)N2CCC[C@H]2C(=O)N2CCC[C@H]2C(=O)N[C@@H](CO)C(N)=O)C(C)C)NC(=O)[C@H](C)NC(=O)[C@H](C)NC(=O)[C@H](CCC(N)=O)NC1=O [mt-144] (H-YAQGTFTSDYSIYMDEQAAKEFVNWLLAGGPSSGAPPPS-NH2; lactam 16-20; N-terminus assumed) | – | – | – | – | – | 16.77% | 141.67% | 18.54% | EC50 (GLP-1 receptor; GLP-1 Receptor EC50, nM, Table 1): 0.036 nM |
| CCCCCCCCCCCCCC(=O)NCCCC[C@H](NC(=O)[C@H](CC(=O)O)NC(=O)[C@H](CO)NC(=O)[C@@H](NC(=O)[C@H](Cc1ccccc1)NC(=O)[C@@H](NC(=O)CNC(=O)[C@H](CCC(=O)O)NC(=O)C(C)(C)NC(=O)[C@@H](N)Cc1ccc(O)cc1)[C@@H](C)O)[C@@H](C)O)C(=O)N[C@@H](CO)C(=O)N[C@H](C(=O)N[C@@H](Cc1ccc(O)cc1)C(=O)N[C@@H](CC(C)C)C(=O)N[C@@H](CC(=O)O)C(=O)N[C@@H](CCCCN)C(=O)N[C@@H](CCC(N)=O)C(=O)N[C@@H](C)C(=O)N[C@@H](C)C(=O)NC(C)(C)C(=O)N[C@@H](CCC(=O)O)C(=O)N[C@@H](Cc1ccccc1)C(=O)N[C@H](C(=O)N[C@@H](CC(N)=O)C(=O)N[C@@H](Cc1c[nH]c2ccccc12)C(=O)N[C@@H](CC(C)C)C(=O)N[C@@H](CC(C)C)C(=O)N[C@@H](C)C(=O)NCC(=O)NCC(=O)N1CCC[C@H]1C(=O)N[C@@H](CO)C(=O)N[C@@H](CO)C(=O)NCC(=O)N[C@@H](C)C(=O)N1CCC[C@H]1C(=O)N1CCC[C@H]1C(=O)N1CCC[C@H]1C(=O)N[C@@H](CO)C(N)=O)C(C)C)[C@@H](C)CC [mt-269] (H-Y[Aib]EGTFTSDK(Myristoyl)SIYLDKQAA[Aib]EFVNWLLAGGPSSGAPPPS-NH2; N-terminus assumed) | 183 nM | 0.11% | 144.85% | 0.0057 nM | 140.35% | – | – | – | EC50 (GLP-1 receptor; [5]): 0.0136 nM |
| CC[C@H](C)[C@@H]1NC(=O)[C@@H](NC(=O)[C@H](CC(=O)O)NC(=O)[C@H](CC(C)C)NC(=O)[C@H](Cc2ccc(O)cc2)NC(=O)[C@H](CCCCN)NC(=O)[C@H](CO)NC(=O)[C@H](Cc2ccc(O)cc2)NC(=O)[C@H](CC(=O)O)NC(=O)[C@H](CO)NC(=O)[C@@H](NC(=O)[C@H](Cc2ccccc2)NC(=O)[C@@H](NC(=O)CNC(=O)[C@H](CCC(N)=O)NC(=O)[C@H](CO)NC(=O)[C@@H](N)Cc2ccc(O)cc2)[C@@H](C)O)[C@@H](C)O)CCC(=O)NCCCC[C@@H](C(=O)N[C@@H](CC(=O)O)C(=O)N[C@@H](Cc2ccccc2)C(=O)N[C@H](C(=O)N[C@@H](CC(N)=O)C(=O)N[C@@H](Cc2c[nH]c3ccccc23)C(=O)N[C@@H](CC(C)C)C(=O)N[C@@H](CC(C)C)C(=O)N[C@@H](C)C(=O)N[C@@H](CCC(N)=O)C(N)=O)C(C)C)NC(=O)[C@H](CCC(N)=O)NC(=O)[C@H](Cc2c[nH]cn2)NC1=O [mt-109] (H-YSQGTFTSDYSKYLDEIHQKDFVNWLLAQ-NH2; lactam 16-20; N-terminus assumed) | – | – | – | – | – | 76.92% | 0.78% | 6.99% | – |
| mt-203: glucagon analog peptide, C-terminal amide (Y[Aib]QGTFTSDYSIYLDEQAAKEFVNWL[Nle]AGGPSSGAPPPSC(PEG 40 kDa)-NH2; lactam 16-20) | – | – | – | – | – | 1.38% | 20.71% | 0.24% | EC50 (glucagon receptor; read-out: Glucagon Receptor EC50, Table 1): 4.84 nM; EC50 (GLP-1 receptor; read-out: GLP-1 Receptor EC50, Table 1): 0.14 nM; EC50 (GIP receptor; read-out: GIP Receptor EC50, Table 1): 12.2 nM |
| Y[Aib]EGTFISDYSIAMDKIHQQDFVNWLLAQKGKKNWLKHNITQ-NH2 [mt-100] | – | – | – | – | – | 0.01% | 0.01% | 306.25% | – |
| CC[C@H](C)[C@H](NC(=O)[C@H](Cc1ccccc1)NC(=O)[C@@H](NC(=O)CNC(=O)[C@H](CCC(N)=O)NC(=O)[C@H](C)NC(=O)[C@@H](N)Cc1ccc(O)cc1)[C@@H](C)O)C(=O)N[C@@H](CO)C(=O)N[C@@H](CC(=O)O)C(=O)N[C@@H](Cc1ccc(O)cc1)C(=O)N[C@@H](CO)C(=O)N[C@@H](CCCCN)C(=O)N[C@@H](Cc1ccc(O)cc1)C(=O)N[C@@H](CC(C)C)C(=O)N[C@@H](CC(=O)O)C(=O)N[C@H]1CCC(=O)NCCCC[C@@H](C(=O)N[C@@H](CCC(=O)O)C(=O)N[C@@H](Cc2ccccc2)C(=O)N[C@H](C(=O)N[C@@H](CC(N)=O)C(=O)N[C@@H](Cc2c[nH]c3ccccc23)C(=O)N[C@@H](CC(C)C)C(=O)N[C@@H](CC(C)C)C(=O)N[C@@H](C)C(=O)NCC(=O)NCC(=O)N2CCC[C@H]2C(=O)N[C@@H](CO)C(=O)N[C@@H](CO)C(=O)NCC(=O)N[C@@H](C)C(=O)N2CCC[C@H]2C(=O)N2CCC[C@H]2C(=O)N2CCC[C@H]2C(=O)N[C@@H](CO)C(N)=O)C(C)C)NC(=O)[C@H](C)NC(=O)[C@H](C)NC(=O)[C@H](CCC(N)=O)NC1=O [mt-145] (H-YAQGTFISDYSKYLDEQAAKEFVNWLLAGGPSSGAPPPS-NH2; lactam 16-20; N-terminus assumed) | – | – | – | – | – | 47.06% | 0.33% | 4.79% | – |
| CCCCCCCCCCCCCCCC(=O)NCCCC[C@H](NC(=O)[C@H](CC(=O)O)NC(=O)[C@H](CO)NC(=O)[C@@H](NC(=O)[C@H](Cc1ccccc1)NC(=O)[C@@H](NC(=O)CNC(=O)[C@H](CCC(=O)O)NC(=O)C(C)(C)NC(=O)[C@@H](N)Cc1ccc(O)cc1)[C@@H](C)O)[C@@H](C)O)C(=O)N[C@@H](CO)C(=O)N[C@H](C(=O)N[C@@H](Cc1ccc(O)cc1)C(=O)N[C@@H](CC(C)C)C(=O)N[C@@H](CC(=O)O)C(=O)N[C@@H](CCCCN)C(=O)N[C@@H](CCC(N)=O)C(=O)N[C@@H](C)C(=O)N[C@@H](C)C(=O)NC(C)(C)C(=O)N[C@@H](CCC(=O)O)C(=O)N[C@@H](Cc1ccccc1)C(=O)N[C@H](C(=O)N[C@@H](CC(N)=O)C(=O)N[C@@H](Cc1c[nH]c2ccccc12)C(=O)N[C@@H](CC(C)C)C(=O)N[C@@H](CC(C)C)C(=O)N[C@@H](C)C(=O)NCC(=O)NCC(=O)N1CCC[C@H]1C(=O)N[C@@H](CO)C(=O)N[C@@H](CO)C(=O)NCC(=O)N[C@@H](C)C(=O)N1CCC[C@H]1C(=O)N1CCC[C@H]1C(=O)N1CCC[C@H]1C(=O)N[C@@H](CO)C(N)=O)C(C)C)[C@@H](C)CC [mt-270] (H-Y[Aib]EGTFTSDK(Palmitoyl)SIYLDKQAA[Aib]EFVNWLLAGGPSSGAPPPS-NH2; N-terminus assumed) | 306 nM | 0.06% | 211.83% | 0.0049 nM | 163.27% | – | – | – | EC50 (GLP-1 receptor; [5]): 0.0093 nM |
